This assay deals with BDF1 mice, colon carcinoma 38 sc, T/C %. Description: NCI In Vivo Anticancer Drug Screen. Data for tumor model Colon Carcinoma 38 (subcutaneous) in B6D2F1 (BDF1) mice. The following applies: endpoint: median tumor weight (est.), schedule: Q07DX002 (ip), higher = larger tumour. The gist of the method: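 Transplantable tumor in mice; compound-treated vs vehicle-dosed controls. Measured survival or tumor size; value = T ÷ C.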

Where [1] appears, read: dose: 25.0 mg/kg/injection, vehicle: saline.
[2] abbreviates: dose: 50.0 mg/kg/injection, vehicle: saline.
Where [3] appears, read: dose: 100.0 mg/kg/injection, vehicle: saline.
The mark [4] stands for this setting: dose: 200.0 mg/kg/injection, vehicle: saline.
[5] abbreviates: dose: 400.0 mg/kg/injection, vehicle: saline.
The mark [6] stands for this setting: dose: 6.25 mg/kg/injection, vehicle: saline with Tween-80.
Setting [7] is: dose: 12.5 mg/kg/injection, vehicle: saline with Tween-80.
Setting [8] is: dose: 25.0 mg/kg/injection, vehicle: saline with Tween-80.
Setting [9] is: dose: 50.0 mg/kg/injection, vehicle: water.
Where [10] appears, read: dose: 100.0 mg/kg/injection, vehicle: saline with Tween-80.
Setting [11] is: dose: 12.5 mg/kg/injection, vehicle: saline.

Values joined by “and” are separate entries in the source; they are usually repeats but may differ in a detail not shown here. Equal values may be shown once. Results filed as inconclusive are left out.

In the case of `COC1=C(C)C(=O)C2=C(C1=O)C1C3CC4=C(C(=O)C(OC)=C(C)C4=O)C(CNC(=O)C(C)=O)N3C(C#N)C(C2)N1C` (stereo unspecified), the T/C was 56 % of control (dose: 0.16 mg/kg/injection, vehicle: Klucel (hydroxypropylcellulose) (HPC)); 98 % of control (dose: 0.25 mg/kg/injection, vehicle: Klucel (hydroxypropylcellulose) (HPC)); 84 % of control (dose: 0.31 mg/kg/injection, vehicle: Klucel (hydroxypropylcellulose) (HPC)); 84 % of control (dose: 0.5 mg/kg/injection, vehicle: Klucel (hydroxypropylcellulose) (HPC)); 80 % of control (dose: 0.62 mg/kg/injection, vehicle: Klucel (hydroxypropylcellulose) (HPC)); 87 % of control (dose: 1.0 mg/kg/injection, vehicle: Klucel (hydroxypropylcellulose) (HPC)). Further, the T/C (dose: 1.25 mg/kg/injection, vehicle: Klucel (hydroxypropylcellulose) (HPC)) is 53 % of control and 73 % of control; the T/C (dose: 2.0 mg/kg/injection, vehicle: Klucel (hydroxypropylcellulose) (HPC)) was 72 % of control; the T/C (dose: 4.0 mg/kg/injection, vehicle: Klucel (hydroxypropylcellulose) (HPC)) is 77 % of control.

For `NC1=NC(=O)N2CC12` (stereo unspecified), the T/C by setting is: under setting [1], 81 % of control; under setting [2], 82 % of control and 83 % of control; under setting [3], 81 % of control and 104 % of control; under setting [4], 66 % of control and 70 % of control; under setting [5], 79 % of control.

Turning to `CCN(CC)c1ccc2cc(-c3nc4ccccc4n3C)c(=O)oc2c1`, the T/C by setting is: (dose: 12.5 mg/kg/injection, vehicle: Klucel (hydroxypropylcellulose) (HPC)) 112 % of control; (dose: 25.0 mg/kg/injection, vehicle: Klucel (hydroxypropylcellulose) (HPC)) 120 % of control; (dose: 50.0 mg/kg/injection, vehicle: Klucel (hydroxypropylcellulose) (HPC)) 85 % of control; (dose: 100.0 mg/kg/injection, vehicle: Klucel (hydroxypropylcellulose) (HPC)) 62 % of control.

Consider `CCCCCCCCCCCCCC#CC(=O)O`, for which the T/C under setting [6] was 76 % of control; the T/C under setting [7] is 92 % of control; the T/C under setting [8] is 75 % of control; the T/C (dose: 50.0 mg/kg/injection, vehicle: saline with Tween-80) is 84 % of control.

As for `Nc1n[n+](-c2ccccc2)no1`, the T/C is, setting by setting: (dose: 3.12 mg/kg/injection, vehicle: water) 99 % of control and 108 % of control; (dose: 6.25 mg/kg/injection, vehicle: water) 85 % of control and 86 % of control and 98 % of control; under setting [9], 70 % of control and 74 % of control and 94 % of control.

Consider `C/C(=N/NC(N)=S)c1ccc2ccccc2c1`, for which the T/C reads like this: under setting [6], 111 % of control; under setting [7], 63 % of control; under setting [8], 70 % of control and 80 % of control; under setting [10], 31 % of control and 48 % of control.

Regarding `COc1cc(C2C3=C(CC(C)(C)CC3=O)N(CC(=O)O)C3=C2C(=O)CC(C)(C)C3)ccc1O`, the T/C was 90 % of control under setting [11]; 99 % of control under setting [1]; 118 % of control under setting [2]; 111 % of control under setting [3]; 55 % of control under setting [4]; 118 % of control under setting [5].

As for `CC(C)CCCCCCCCCCCCC(=O)NCC(=O)NC1C(O)C(O)C(Nc2ncnc3nc[nH]c23)OC1C(O)CO` (stereo unspecified), the T/C was 110 % of control (dose: 0.13 mg/kg/injection, vehicle: saline); 114 % of control (dose: 0.25 mg/kg/injection, vehicle: saline); 71 % of control (dose: 1.0 mg/kg/injection, vehicle: saline); 114 % of control (dose: 1.0 mg/kg/injection, vehicle: suspension in saline); 87 % of control (dose: 2.0 mg/kg/injection, vehicle: saline); 113 % of control (dose: 2.0 mg/kg/injection, vehicle: suspension in saline). Also, the T/C (dose: 4.0 mg/kg/injection, vehicle: saline) is 76 % of control and the T/C (dose: 4.0 mg/kg/injection, vehicle: suspension in saline) was 42 % of control.

Take `CC(C)[C@](O)(C(=O)OCC1=CCN2CC[C@@H](O)[C@@H]12)[C@H](C)O`: the T/C was 123 % of control (dose: 12.5 mg/kg/injection, vehicle: suspension in saline); 76 % of control (dose: 25.0 mg/kg/injection, vehicle: suspension in saline); 85 % of control under setting [2]; 74 % of control (dose: 50.0 mg/kg/injection, vehicle: suspension in saline); 73 % of control under setting [9]; 56 % of control (dose: 100.0 mg/kg/injection, vehicle: suspension in saline). The T/C (dose: 100.0 mg/kg/injection, vehicle: water) is 184 % of control; the T/C under setting [4] is 105 % of control; the T/C (dose: 200.0 mg/kg/injection, vehicle: suspension in saline) is 98 % of control; the T/C under setting [5] was 81 % of control; the T/C (dose: 400.0 mg/kg/injection, vehicle: suspension in saline) is 95 % of control; the T/C (dose: 400.0 mg/kg/injection, vehicle: water) is 52 % of control.

For `Cc1c(CNc2ccc(C(=O)NC(CC(=O)O)C(=O)O)cc2)ccc2nc(N)nc(N)c12` (stereo unspecified), the T/C reads like this: (dose: 1.56 mg/kg/injection, vehicle: saline with Tween-80) 86 % of control; (dose: 1.56 mg/kg/injection, vehicle: saline) 122 % of control; (dose: 3.12 mg/kg/injection, vehicle: saline with Tween-80) 87 % of control; (dose: 3.12 mg/kg/injection, vehicle: saline) 96 % of control; under setting [6], 35 % of control; (dose: 6.25 mg/kg/injection, vehicle: saline) 48 % of control. Besides, the T/C under setting [11] was 32 % of control.

Turning to `O=C[C@@H](CO)O[C@H](C=O)n1cnc2c(=O)[nH]cnc21`, the T/C by setting is: (dose: 18.7 mg/kg/injection, vehicle: saline) 168 % of control; (dose: 37.5 mg/kg/injection, vehicle: saline) 105 % of control; (dose: 75.0 mg/kg/injection, vehicle: saline) 121 % of control; (dose: 150.0 mg/kg/injection, vehicle: saline) 100 % of control; (dose: 300.0 mg/kg/injection, vehicle: saline) 120 % of control; (dose: 600.0 mg/kg/injection, vehicle: saline) 86 % of control.

Consider `CCN1C=C/C(=C\C=C/c2cc[n+](CC)c3ccccc23)c2ccccc21`, for which the T/C was 91 % of control (dose: 0.06 mg/kg/injection, vehicle: saline); 120 % of control (dose: 0.12 mg/kg/injection, vehicle: saline); 101 % of control (dose: 62.0 micrograms/kg/injection, vehicle: saline); 123 % of control (dose: 125.0 micrograms/kg/injection, vehicle: saline); 156 % of control (dose: 250.0 micrograms/kg/injection, vehicle: saline).

Consider `O=C(O[Si](Cc1ccccc1)(Cc1ccccc1)Cc1ccccc1)N(CCCl)CCCl`, for which the T/C under setting [8] was 77 % of control and 102 % of control; the T/C under setting [10] was 194 % of control; the T/C (dose: 200.0 mg/kg/injection, vehicle: saline with Tween-80) was 112 % of control.

(Values after PubChem BioAssay AID212 (DTP/NCI, 2004).)
